# In patent US20210113617A1, “METHODS AND COMPOSITIONS FOR TH9 CELL MEDIATED CANCER TREATMENT” (Wake Forest University Health Sciences, priority 2018, published 2021):
# Assays:
# OT-II-Th17 cells = experiment: QNZ on restimulated OT-II-Th17 cells (CFSE dilution); type: cell-based, mice; settings: restimulated with antigen-pulsed APCs for 2 days in presence of QNZ
# Procedure: (§1) CFSE labeling and cytotoxicity assay. In some experiments, Th cells were incubated for 5 minutes at 37° C. with 1 μM CFSE in PBS, and then washed extensively. We measured proliferation of T cells by the relative CFSE dilution method after stimulation or transfer into tumor-bearing mice. In the cytotoxicity assay, B16-OVA target cells or B16 non-target cells for OT-II T cells were labeled with 5 μM CFSE. B16-OVA target cells or B16 non-target control cells were incubated alone in triplicate with the OT-II T cells at a 1:10 effector-to-target ratio. For TRP-1 T cells, B16 target cells or MC38 non-target control cells were used. After 18 hours, CFSE^+ tumor cells from each target and control well were stained using FVD and analyzed by FACS. FVD^+ tumor cells were considered as dead cells. The percent specific lysis was calculated as (FVD^+ target−FVD^+ control)×100%.
# (§2) Moreover, we further confirmed the increased proliferative capacity of Th9 cells by CFSE-dilution assay and by calculating the cell yields after the first-round activation and the subsequent reactivation (FIGS. 5G-5H).
# OT-II-Th9 cells = experiment: QNZ on restimulated OT-II-Th9 cells (CFSE dilution, cell yield, Annexin V/PI); type: cell-based, mice
# Procedure: as §1, §2
smiles,measurement,setting,value
Nc1ccc2ncnc(NCCc3ccc(Oc4ccccc4)cc3)c2c1 [QNZ],proliferation of Th17,OT-II-Th17 cells,minimal effect
same,Th9 hyperproliferation,OT-II-Th9 cells; restimulated with OT-II peptide-pulsed APCs in presence of QNZ for 48 hours,significantly arrested Th9 hyperproliferation
same,Th9 cell apoptosis,OT-II-Th9 cells; restimulated with antigen-pulsed APCs for 2 days in presence of QNZ,did not induce Th9 cell apoptosis
